In publication PMC4710668, “Bioactivation of food genotoxicants 5-hydroxymethylfurfural and furfuryl alcohol by sulfotransferases from human, mouse and rat: a comparative study” (Archives of Toxicology, 2014):
Marks after values point to notes of the source that are not given here.

Experiments:
Assay in all cases: FFA sulfoconjugation assay (N6-MF-A formation with adenosine as scavenger)
Format in all cases: biochemical
hSULT1C3 = target: T1, hSULT1C3 (Homo sapiens, UniProt Q6IMI6)
T1 construct: made in house; host or cells: Salmonella typhimurium TA1538 (cytosolic fraction, not purified)
Protocol: (§1) Cytosolic fractions containing individual SULT forms were prepared from transgenic S. typhimurium TA1538. Table S1 in the Supplementary Material provides a summary of the thirty SULTs used in the current study together with references describing the cloning of the respective S. typhimurium TA1538 strains. The expressed SULT forms are denoted with the prefixes h, m and r for human, mouse and rat enzymes, respectively. Bacteria were grown in Luria Broth medium containing ampicillin (100 µg/ml) by stirring for 8 h at 200 revolutions/min at 37 °C. The bacterial suspensions were centrifuged at 5,000 g for 10 min. The sediments were washed twice with 25 ml of 10 mM potassium phosphate buffer (pH 7.4)/50 mM potassium chloride (KCP buffer) and centrifuged again. The pellets were taken up in 800 µl KCP buffer and sonicated thrice for 15 s with 30 s pauses in between. The soluble fraction was attained by centrifuging for 1 h at 100,000 g. The supernatants (in the following termed cytosolic preparations) were frozen at −80 °C. The protein concentrations were determined according to a bicinchoninic acid (BCA) assay protocol. The SULT concentrations in the cytosolic preparations were estimated after electrophoretic separation and immunodetection using inclusion bodies of different SULT forms as standards (Teubner et al. [2007]). The preparation of SULT inclusion bodies and the immunodetection of SULTs is described in the Supplementary Material, which also contains a representative immunoblot of different amounts of rSult1a1standard and a cytosolic preparation of S. typhimurium expressing rSult1a1 (Fig. S1).
(§2) The reaction mixtures were prepared as described for HMF. In addition, they contained 10 mM adenosine as a nucleophilic scavenger. Following incubation for 20 min at 37 °C, sulfoconjugation reactions were stopped by adding 100 µl cold methanol containing 175 fmol of [^15N5]N ^6-MF-A as the internal standard, mixed and centrifuged at 15,000 g for 10 min. The clear supernatants were subjected to UPLC-MS/MS analyses. Incubations were performed as quadruplicates. At higher concentrations, FFA reacts spontaneously with adenosine at low, but detectable, levels. To correct for the SULT-independent adduct formation, mixtures with SULT-deficient cytosols were carried along simultaneously in duplicate. Controls were subtracted from the experimental samples.
(§3) The ribonucleoside adduct N ^6-((furan-2-yl)methyl)-adenosine (N ^6-MF-A) was analyzed by isotope-dilution UPLC-MS/MS with the same system described above using a HSS T3 column (1.8 µm, 2.1 × 100 mm, Waters). Samples of 8 µl were eluted with 10 mM ammonium bicarbonate buffer, pH 8.0 (A) and methanol (B) using an 6-min gradient from 98 % solvent A to 15 % solvent A at 0.35 ml/min flow rate (Yin et al. [2013]). The electrospray interface of the mass spectrometer operated in the positive ion mode. The fragmentations of N ^6-MF-A into the aglycone cation [N ^6-((furan-2-yl)methyl)-adenine-H]^+ (m/z = 348.1 → 216.1), the cleavage of the 2-methylfuranyl cation (m/z = 348.1 → 81.0) and the release of [N ^6-methyl-adenine-H]^+ (m/z = 348.1 → 148.0) were monitored together with the corresponding fragmentations of the isotope-labeled internal standard [^15N5]N ^6-MF-A for the formation of the aglycone (m/z = 353.1 → 221.1), the 2-methylfuran cation (m/z = 353.1 → 81.0) and ^15N5-labeled N ^6-methyl-adenine (m/z = 353.1 → 153.0). The N ^6-MF-A content of the incubation mixture was calculated from the ratio of peak areas resulting from the total ion current of all three MRM signals of the analyte. For the fragmentation of N ^6-MF-A ([^15N5]N ^6-MF-A), collision energies were 20, 25 and 35 eV for the transitions m/z = 348.1 → 216.1 (m/z = 353.1 → 221.1), m/z = 348.1 → 148.0 (m/z = 353.1 → 153.0) and m/z = 348.1 → 81.0 (m/z = 353.1 → 81.0), respectively. […]

hSULT1E1 = target: T2, hSULT1E1 (Homo sapiens, UniProt P49888)
T2 construct: made in house; host or cells: Salmonella typhimurium TA1538 (cytosolic fraction, not purified)
T2 sequence (P49888 1-294): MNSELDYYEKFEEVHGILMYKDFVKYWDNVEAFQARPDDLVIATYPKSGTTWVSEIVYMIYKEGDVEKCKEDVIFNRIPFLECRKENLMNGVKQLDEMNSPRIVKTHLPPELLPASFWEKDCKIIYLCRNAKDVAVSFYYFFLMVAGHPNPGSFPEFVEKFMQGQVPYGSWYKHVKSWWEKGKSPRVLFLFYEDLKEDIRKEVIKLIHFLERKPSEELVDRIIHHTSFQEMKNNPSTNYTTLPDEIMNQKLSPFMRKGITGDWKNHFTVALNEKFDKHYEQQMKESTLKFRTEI
Protocol: as §1, §2, §3

hSULT2B1a = target: T3, hSULT2B1a (Homo sapiens, UniProt O00204)
T3 construct: made in house; host or cells: Salmonella typhimurium TA1538 (cytosolic fraction, not purified)
T3 sequence (O00204 1-350 isoform O00204-2): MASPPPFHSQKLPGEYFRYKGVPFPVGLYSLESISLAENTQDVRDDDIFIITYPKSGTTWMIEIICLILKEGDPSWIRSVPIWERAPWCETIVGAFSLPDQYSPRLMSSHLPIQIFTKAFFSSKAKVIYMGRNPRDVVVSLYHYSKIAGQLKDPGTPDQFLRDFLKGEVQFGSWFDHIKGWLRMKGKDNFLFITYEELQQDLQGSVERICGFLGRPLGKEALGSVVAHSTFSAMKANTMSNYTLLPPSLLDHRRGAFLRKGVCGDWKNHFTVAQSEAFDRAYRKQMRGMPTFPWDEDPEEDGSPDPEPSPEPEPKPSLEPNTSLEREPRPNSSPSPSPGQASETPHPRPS
Protocol: as §1, §2, §3

hSULT2B1b = target: T4, hSULT2B1b (Homo sapiens, UniProt O00204)
T4 construct: made in house; host or cells: Salmonella typhimurium TA1538 (cytosolic fraction, not purified)
T4 sequence (O00204 1-365): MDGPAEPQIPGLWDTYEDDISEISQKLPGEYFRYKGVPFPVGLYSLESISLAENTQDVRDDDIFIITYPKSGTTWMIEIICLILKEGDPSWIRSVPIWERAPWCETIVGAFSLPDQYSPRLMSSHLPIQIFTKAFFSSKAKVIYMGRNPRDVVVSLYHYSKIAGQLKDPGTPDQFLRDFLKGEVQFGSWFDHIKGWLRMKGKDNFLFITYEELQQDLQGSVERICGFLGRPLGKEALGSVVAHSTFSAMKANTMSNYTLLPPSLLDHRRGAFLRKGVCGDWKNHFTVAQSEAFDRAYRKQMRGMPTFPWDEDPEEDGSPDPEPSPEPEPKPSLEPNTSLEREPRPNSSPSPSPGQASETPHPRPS
Protocol: as §1, §2, §3

T1 sequence (Q6IMI6 whole entry): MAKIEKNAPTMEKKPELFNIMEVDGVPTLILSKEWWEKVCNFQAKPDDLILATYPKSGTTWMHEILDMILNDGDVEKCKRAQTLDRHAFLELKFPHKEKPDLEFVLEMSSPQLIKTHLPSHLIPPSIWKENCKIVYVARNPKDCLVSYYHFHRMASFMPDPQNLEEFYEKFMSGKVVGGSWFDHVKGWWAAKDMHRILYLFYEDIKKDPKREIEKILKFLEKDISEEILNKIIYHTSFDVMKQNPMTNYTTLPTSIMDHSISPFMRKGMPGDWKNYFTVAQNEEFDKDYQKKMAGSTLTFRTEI

Question: What does the source list for OCc1ccco1 [FFA, furfuryl alcohol]?
Answer: Rate of N6-MF-A formation (hSULT1C3; 0.1 mM FFA): <18 fmol N ^6-MF-A/mg/min; Rate of N6-MF-A formation (hSULT1C3; 1 mM FFA): 61.8 ± 0.3 fmol N ^6-MF-A/mg/min; Rate of N6-MF-A formation (corr.) (hSULT1C3; 1 mM FFA, corrected by SULT concentration reported in Meinl et al. [2006]): 3,090 ± 10^b fmol N ^6-MF-A/mg/min; Rate of N6-MF-A formation (hSULT1C3; 10 mM FFA): 248 ± 3 fmol N ^6-MF-A/mg/min; Rate of N6-MF-A formation (hSULT1E1; 0.1 mM FFA): <18 fmol N ^6-MF-A/mg/min; Rate of N6-MF-A formation (hSULT1E1; 1 mM FFA): <20 fmol N ^6-MF-A/mg/min; Rate of N6-MF-A formation (hSULT1E1; 10 mM FFA): 47.0 ± 0.9 fmol N ^6-MF-A/mg/min; Rate of N6-MF-A formation (hSULT2B1a; 0.1 mM FFA): <18 fmol N ^6-MF-A/mg/min; Rate of N6-MF-A formation (hSULT2B1a; 1 mM FFA): <20 fmol N ^6-MF-A/mg/min; Rate of N6-MF-A formation (hSULT2B1a; 10 mM FFA): <44 fmol N ^6-MF-A/mg/min; Rate of N6-MF-A formation (hSULT2B1b; 0.1 mM FFA): <18 fmol N ^6-MF-A/mg/min; Rate of N6-MF-A formation (hSULT2B1b; 1 mM FFA): <20 fmol N ^6-MF-A/mg/min; Rate of N6-MF-A formation (hSULT2B1b; 10 mM FFA): <44 fmol N ^6-MF-A/mg/min
